Our source for the melting point values is a melting point compilation (Tetko et al.; mined from patent text by program, amines drawn as free bases though some values may be those of a salt).

Each structure is given as a SMILES string.

For the compound `Nc1nc(N)c2c(CCCc3ccc(C(=O)N[C@@H](CCC(=O)O)C(=O)O)cc3)cnc-2[nH]1`, the melting point (commonly the temperature of the solid-liquid transition) was > 250 °C. In the case of `CCOC(=O)C(Cc1ccc(OCCN2COc3ccccc3C2=O)cc1)OCC` (stereo not drawn) it was 76 to 78 °C. For the compound `CCON=C(C(C)=NOCc1ccccc1C(=NOC)C(=O)OC)c1ccc(Oc2ccc(Cl)cc2)cc1`, the melting point fell in the range of 90 to 93 °C.

In the case of `CC1(C)Nc2cc(Cl)ccc2NC1=O`, the melting point lay in the range of 166 to 170 °C. In the case of `O=c1cc(-c2ccccc2)oc2cc(OCC(O)CCCOC3CCCCO3)ccc12` (stereo not drawn) it was 110 to 112 °C; in that of `CC(=O)c1ccc(OCCCN2CCC(c3noc4cc(F)ccc34)CC2)cc1`, 111 to 112 °C. For the compound `Clc1ccc(Oc2cc(Br)c(Cl)cc2OCc2ccccc2)c(Cl)c1`, the melting point was in the range of 86 to 88 °C. In the case of `CC1(C)C(C#CC(=O)OCC(Cl)(Cl)Cl)C1C(=O)OC(C#N)c1cccc(Oc2ccccc2)c1` (stereo not drawn) it was 101 °C.

For the compound `OC(CNc1ccc(Cl)c(Cl)c1)Cn1ccnc1` (stereo not drawn), the melting point was 98 to 100 °C. In the case of `COC(=O)c1cnn(-c2cc(Cl)cc(Cl)c2)c1C(N)=O` it was 220 to 222 °C; in that of `COc1cccc(C2=C(c3cn4c5c(cccc35)CCC4)C(=O)NC2=O)c1`, 99 to 101 °C; in that of `CCOC(=O)NC1=NN(c2cccc(Cl)c2)C(=O)C1C` (stereo not drawn), 162 °C. With `CCc1nc2c(cnn2CC)c(NC2CCOCC2)c1CNC(=O)c1cccc(C(=O)NCc2cc(Cl)cc(-c3cccc(C=O)c3)c2)c1` the figure was 123 to 127 °C; with `COc1cc(C(C)(C)O)c(OCc2ccccc2)cc1N1CCN(Cc2ccccc2)CC1`, 94 to 96 °C. With `CCC(CC)(CCCCS(N)(=O)=O)COc1nn2ncnc2cc1C` the figure was 132 to 133 °C; with `CN1C(=O)C(c2ccc(OC(F)F)cc2)(c2cccc(CCCCO)c2)N=C1N` (stereo not drawn), 63 to 66 °C; with `CCC(=O)Nc1cnn2cnc3ccccc3c12`, 202 to 204 °C.

Compound `O=C(O)[C@H](O)C1CCCCC1` showed a melting point of 124 to 126 °C. The compound `Cc1nn(C(=O)NC(C)C)c(=O)n1C` had a melting point of 81 °C. With `O=C(Oc1ccc([N+](=O)[O-])cc1)C(O)C(O)C(=O)Oc1ccc([N+](=O)[O-])cc1` (stereo not drawn) the figure was 163 to 164 °C. In the case of `Cc1c(Oc2c(F)cc(C(F)(F)F)cc2Cl)nn(C(=O)OC(C)(C)C)c1C` it was 138 to 139 °C; in that of `CN1CCN(c2cc(Cl)cc3c2c(=O)n(Cc2ccccc2)c(=O)n3C)CC1`, 132 to 136 °C. `Cc1nc(NC(=O)c2cccc3ccccc23)sc1C(=O)NCc1ccccc1` gave a melting point of 99 to 101 °C. Compound `CCNCCC1CCc2cc(OCc3ccc(-c4ccccc4)cc3)ccc2C1` (stereo not drawn) returned a melting point of 83 to 85 °C. With `c1nc(CSCCc2ccc3c(c2)OCO3)c[nH]1` the figure was 81 to 83 °C; with `CCc1nc(/C=C/c2cn(-c3ccccc3)nc2OCc2ccc(OCc3nc(-c4cccc(-c5nnn[nH]5)c4)oc3C)c(OC)c2)cs1`, 144 to 147 °C. With `CCCCOc1c(CNC(=O)OC(C)(C)C)n(CC(C)C)c(=O)c2ccc(-n3ccnn3)cc12` the figure was 190 to 191 °C; with `CCOC(=O)c1c(S(C)(=O)=O)n(C2CC2)c2c(OC)c(F)c(F)cc2c1=O`, 177 to 178 °C; with `c1ccc(CNc2nccc3ccccc23)cc1`, 101 to 102 °C. In the case of `COc1ccccc1-c1cccn2nc(Nc3ccc4c(c3)CCN(CC(=O)N(C)C)CC4)nc12` it was 102 to 105 °C. As for `COC(=O)N1CCN(C(=O)N2CCC(c3cccnc3)C2)c2ccccc21` (stereo not drawn), the melting point was determined as 83 °C.

`COc1cc(OC)cc(-c2oc3ncnc(N4CCCCC4)c3c2-c2ccccc2)c1` yielded a melting point of 152 to 153 °C.

`CC(=O)OCC1OC(F)C(N2C(=O)c3ccccc3C2=O)C(OC(C)=O)C1OC(C)=O` (stereo not drawn) displayed a melting point of 116 °C. As for `N#Cc1c(Cl)ccc(Cl)c1Cl`, the melting point lay within 117 to 119 °C. Consider `CS(=O)(=O)c1cccc(Cc2cc3c(F)ccc(-c4cccc(C(=O)NCC(N)=O)c4)c3s2)c1`, for which the melting point is 107 to 108 °C. In the case of `CC(=O)CCCCCCCCCCCCC(C)=O` it was 80 °C; in that of `CCOC(=O)c1c(NCC(=O)c2ccccc2)c2c(Cl)cc(Cl)cc2n1C(=O)OC(C)(C)C`, 143 to 144 °C. With `COc1ccc(CCNC(=O)CN)cc1OC1CCCC1`, the melting point lay in the range of 57 to 60 °C. With `CCCCCCCCCC(CCCCCCCCC)N1C(=O)c2ccc3c4cccc5cccc(c6ccc(c2c36)C1=O)c54` the figure was 143 to 144 °C; with `O=C(O)c1ccc(F)c2c1OCC=C2`, 187 to 189 °C. With `CCn1ncc2c(NCc3ccc(OC)cc3)c3cc(OC)ccc3nc21` the figure was 263 to 265 °C; with `C=CCOC(=O)c1ccc(OC(=O)c2ccc(OC)c(C34CC5CC(CC(C5)C3)C4)c2)c(C(C)(C)C)c1`, 113 to 115 °C; with `O=S(=O)(c1ccc(Cl)cc1)C(c1cc(F)ccc1F)c1cc(NCCO)ncc1Cl` (stereo not drawn), 168 to 169 °C.

Consider `CC(=O)NC[C@@H]1C[C@H]1c1cccn2nc(C)cc12` (relative stereo), for which the melting point is 100 to 101 °C. With `CCCOc1ccccc1-c1ccc(C#N)c(=O)[nH]1` the figure was 244 to 247 °C. With `CC(C)c1ccc(C(C[N+](=O)[O-])SC(=S)N(C)C)cc1` (stereo not drawn) the figure was 119 to 120 °C; with `COC(=O)c1cc(OC)c(Cc2c(N)nc(N)nc2Cl)c(OC)c1`, 228 to 229 °C. Turning to `CS(=O)(=O)Nc1ccc(OCC2CCN(c3cc([N+](=O)[O-])ccn3)CC2)cc1`, the melting point is 184 °C.

Regarding `O=C(O)c1ccc(-c2c([N+](=O)[O-])oc3ccc(-c4ccccc4)cc23)cc1`, the melting point fell in the range of 235 to 249 °C. With `CCCCOC(=O)C(Cl)=Cc1cc(-n2c(=O)cc(C(F)(F)F)n(C)c2=O)ccc1Cl` the figure was 109 to 110 °C; with `CN(C)CC=Cc1ccc2c(c1)CCN2C(=O)c1ccc(-c2ccccc2)cc1`, 174 to 176 °C; with `CCc1ccc(C(CC(=O)O)C(=O)O)s1` (stereo not drawn), 165 to 166 °C. In the case of `OC(c1cccc(-c2cc3ccccc3[nH]2)c1)c1cc2ccccc2[nH]1` (stereo not drawn) it was 82 to 85 °C; in that of `Cc1nnc2ccc(-c3ccc(Cl)c(C(F)(F)F)c3)nn12`, 267 to 269 °C.

On to `COC(=O)[C@H]1CC[C@H](NC(=O)c2cc(-c3ccc(C#N)cc3)nn(Cc3ccccc3)c2=O)CC1`, for which the melting point was 217 to 220 °C. In the case of `O=C1CCCc2ccc(OCCCCN3CCN(c4cccc5ccc(F)cc45)CC3)nc2N1` it was 202 to 203 °C; in that of `CS(=O)(=O)N(CCBr)N(S(C)(=O)=O)S(C)(=O)=O`, 147 to 148 °C; in that of `CC(c1ccncc1)C(O)(Cn1cncn1)c1ccc(F)cc1F` (stereo not drawn), 161 to 163 °C.

`CCCCCNC(=O)C(C)Cc1ccc2c(c1)c(Cc1ccc(C(=O)O)cc1OC)cn2C` (stereo not drawn) yielded a melting point of 85 to 95 °C.

In turn, `O=C(O)c1ccc(S(=O)(=O)Oc2c(Br)cc(-c3ccc(-c4c(Cc5ccccc5)sc5ccccc45)cc3)cc2Br)cc1O` showed a melting point of 192 to 194 °C. With `COc1ccc(-c2ccccc2C)cc1C=O` the figure was 66 to 69 °C. With `CC(C)n1c(=O)c2cc(C(=O)O)cn2c2ccccc21` the figure was 238 to 240 °C.

`C=C(C)[C@H]1CC[C@@](C)(O)[C@H](N[C@@H](C)C2CCCCC2)C1` displayed a melting point of 63 to 64 °C. On to `Cc1c([N+](=O)[O-])ccc2c1CCN2`, for which the melting point is 169 to 171 °C. For the compound `COC(=O)CC(C)(C)C(=O)c1ccc2c(c1)CC(N1C(=O)c3ccccc3C1=O)C2` (stereo not drawn), the melting point lay within 115 to 117 °C.

Regarding `COc1cc(C(C)=O)cc(OC)c1OCCOc1ccc2ccccc2c1`, the melting point lay within 76 to 77 °C. With `CCC(OCC(F)(F)F)c1ccc(Cl)c2nc3n(c12)CCCN3c1ccc(N(C)C)nc1C` (stereo not drawn) the figure was 144 to 146 °C; with `CC(C)(C)OC(=O)N1CCC(C(=O)C2CCCCC2=O)CC1` (stereo not drawn), 71 to 72 °C; with `CSc1ccc2c(c1)C=C(C(=O)O)C(C(F)(F)F)O2` (stereo not drawn), 166 to 168 °C. In turn, `CCCOC(=O)c1c(Cn2ccnc2)nc2cc(OC)c(OC)cc2c1-c1ccc(OC)c(OC)c1` had a melting point of 166 to 168 °C. In the case of `CSC(c1ccc(Cl)cc1)C(C(O)C(C)(C)C)n1cncn1` (stereo not drawn) it was 58 to 60 °C; in that of `O=C1c2ccccc2C(=O)N1CC(=O)N1c2ccccc2N(Cc2ccc3ccccc3c2)C(=O)C2CCCC21` (stereo not drawn), 238 to 239 °C. In the case of `CNC(=O)c1cnn(-c2ccccc2)c1C#N` it was 203 to 205 °C. With `O=C(CCc1ccc(NC2=NCCN2)cc1)c1ccc(N2CCOCC2)cc1` the figure was 196 to 198 °C; with `COc1cc(Nc2c(C#N)cnc3cc(-c4cc(CN5CCOCC5)c(CN5CCOCC5)s4)c(OC)cc23)c(Cl)cc1Cl`, 120 to 124 °C. `CC(c1ccc(Cl)cc1)N1CCC2(CC1)Cc1ccccc1O2` (stereo not drawn): the melting point was in the range of 64 to 66 °C. With `CC(C)(C)OC(=O)N1CCC(N2C(=O)OCc3ccccc32)CC1` the figure was 143 to 145 °C; with `CC(=O)Oc1ccc(-n2c3c(c(C(C)=O)c2-c2ccccc2)-c2ccccc2CC3)cc1C(=O)O`, 223 to 226 °C. With `COc1cc(-c2nc(NCC(C)C)c3c(C)c(C#N)sc3n2)cc(OC)c1OC` the figure was 182 to 184 °C; with `CCN(Cc1csc(C2CCCC2)n1)C(=O)N[C@H](C(=O)N[C@@H](Cc1ccccc1)C[C@H](O)[C@H](Cc1ccccc1)NC(=O)OCc1cncs1)C(C)C`, 67 to 69 °C; with `CCOc1ccc2[nH]c(S(=O)Cc3cccn4ccnc34)nc2c1` (stereo not drawn), 186 to 188 °C. In turn, `Cc1ccc(S(=O)(=O)NC(=S)NC23CC4CC(CC(C4)C2)C3)cc1` came in with a melting point of 170 to 173 °C. In the case of `CCCCCCCCCCCCCCOCc1ccc(C=C2C(=O)C3(C)CCC2C3(C)C)cc1` (stereo not drawn) it was 35 °C.
